In patent publication US9580449B2, “Compositions and methods for the production of pyrimidine and pyridine compounds with BTK inhibitory activity” (Merck Patent GmbH, priority 2011, dated 2017):

Target: full-length human BTK (Homo sapiens (Human), UniProt Q06187)
Assay: BTK IC50 enzyme assay (microfluidic off-chip mobility shift kinase assay)
Format: biochemical
Details: incubated for 90 min. at 27 C; read-out: Time Dependent BTK Enzyme Assay IC50
Protocol: The following describes a microfluidic, off-chip mobility shift kinase assay used to measure inherent potency of compounds against BTK enzyme. Compounds described by embodiments of the present invention were assayed using this protocol and the data from the same is recorded in Table 2 within the column labeled: “Time Dependent BTK Enzyme Assay IC50”.
Stopped reactions were monitored at −2 PSI, −3000 V/−700 V in a LabChip 3000 plate reader from Caliper Life Sciences, a PerkinElmer Company (Hopkinton, Mass.), and the activity was measured by off-chip mobility shift assay measuring the charge/mass difference between substrate and product resulting from peptide phosphorylation. IC50 and efficacy were determined by plotting log [Inhibitor] vs. % Activity in GeneData Screener (Basel, Switzerland). […] I<1 uM and II>1 uM.

full-length human BTK, sequence (Q06187 whole entry): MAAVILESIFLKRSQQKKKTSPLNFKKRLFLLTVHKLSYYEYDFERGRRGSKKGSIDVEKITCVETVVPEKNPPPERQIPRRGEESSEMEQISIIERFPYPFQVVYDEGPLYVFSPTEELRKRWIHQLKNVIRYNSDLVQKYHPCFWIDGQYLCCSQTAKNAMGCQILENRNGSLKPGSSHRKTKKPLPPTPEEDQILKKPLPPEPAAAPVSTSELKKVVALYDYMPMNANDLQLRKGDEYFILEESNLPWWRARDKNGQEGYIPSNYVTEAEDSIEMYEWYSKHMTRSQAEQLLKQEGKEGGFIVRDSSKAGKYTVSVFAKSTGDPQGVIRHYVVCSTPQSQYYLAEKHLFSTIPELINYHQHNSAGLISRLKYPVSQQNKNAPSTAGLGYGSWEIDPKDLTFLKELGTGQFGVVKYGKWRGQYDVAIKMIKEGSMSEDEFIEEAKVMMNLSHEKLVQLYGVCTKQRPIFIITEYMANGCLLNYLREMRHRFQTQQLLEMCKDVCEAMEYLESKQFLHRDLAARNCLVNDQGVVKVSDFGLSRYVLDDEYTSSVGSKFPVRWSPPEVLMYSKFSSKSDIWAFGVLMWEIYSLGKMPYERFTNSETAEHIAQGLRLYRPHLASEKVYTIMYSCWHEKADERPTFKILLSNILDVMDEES

`Nc1ncnc(OC2CC3(C2)CN(C(=O)/C=C/CN2CC(F)C2)C3)c1-c1ccc(Oc2ccccc2)cc1` [A222, (E)-1-(6-((6-amino-5-(4-phenoxyphenyl)pyrimidin-4-yl)oxy)-2-azaspiro[3.3]heptan-2-yl)-4-(3-fluoroazetidin-1-yl)but-2-en-1-one] and `C/C=C\C(=O)N1CCC(COc2ncnc(N)c2-c2ccc(Oc3ccccc3)cc2)CC1` [A43, (Z)-1-(4-(((6-amino-5-(4-phenoxyphenyl)pyrimidin-4-yl)oxy)methyl)piperidin-1-yl)but-2-en-1-one] cannot be ordered by IC50: under 0.1 µM for the first, under 1 µM for the second.

`C=CC(=O)N1CCC(CCNc2ncnc(N)c2-c2ccc(Oc3ccccc3)cc2)CC1` [A16, 1-(4-(2-((6-amino-5-(4-phenoxyphenyl)pyrimidin-4-yl)amino)ethyl)piperidin-1-yl)prop-2-en-1-one] and `Nc1ncnc(NCC2CCN(C(=O)C(O)CO)CC2)c1-c1ccc(Oc2ccccc2)cc1` (stereo not shown) [A56, 1-(4-(((6-amino-5-(4-phenoxyphenyl)pyrimidin-4-yl)amino)methyl)piperidin-1-yl)-2,3-dihydroxypropan-1-one] cannot be ordered by IC50: over 1 µM for the first, over 1 µM for the second.

`Nc1ncnc(Oc2cccc(NC(=O)/C=C/CN3CCOCC3)c2)c1-c1ccc(Oc2ccccc2)cc1` [A265, (E)-N-(3-((6-amino-5-(4-phenoxyphenyl)pyrimidin-4-yl)oxy)phenyl)-4-morpholinobut-2-enamide] and `CCC(=O)Nc1cccc(Oc2ncnc(N)c2-c2ccc(OCc3ccccc3)cc2)c1` [A346, N-{3-[6-Amino-5-(4-benzyloxy-phenyl)-pyrimidin-4-yloxy]-phenyl}-propionamide] cannot be ordered by IC50: under 0.1 µM for the first, under 0.1 µM for the second.

First: C=CC(=O)N1CCO[C@@H](COc2ncnc(N)c2-c2cnn(Cc3ccccc3)c2)C1 [A192, (R)-1-(2-(((6-amino-5-(1-benzyl-1H-pyrazol-4-yl)pyrimidin-4-yl)oxy)methyl)morpholino)prop-2-en-1-one]
Second: C=CC(=O)N1CCC(CNc2ncnc(N)c2-c2cnn(Cc3ccccc3)c2)CC1 [A33, 1-(4-(((6-amino-5-(1-benzyl-1H-pyrazol-4-yl)pyrimidin-4-yl)amino)methyl)piperidin-1-yl)prop-2-en-1-one]
The IC50 of the first is lower: under 1 µM for the first, over 1 µM for the second. The first is the more potent here.

First: C=CC(=O)N1CCC2(CCC2Nc2ncnc(N)c2-c2ccc(Oc3ccccc3)cc2)CC1 (stereo not shown) [A123, 1-(1-((6-amino-5-(4-phenoxyphenyl)pyrimidin-4-yl)amino)-7-azaspiro[3.5]nonan-7-yl)prop-2-en-1-one]
Second: C=CC(=O)N1C[C@H](F)C[C@@H](Nc2ncnc(N)c2-c2ccc(Oc3ccccc3)cc2)C1 [A205, 1-((3R,5R)-3-((6-amino-5-(4-phenoxyphenyl)pyrimidin-4-yl)amino)-5-fluoropiperidin-1-yl)prop-2-en-1-one]
The IC50 of the first is higher: over 1 µM for the first, under 0.1 µM for the second. The second is the more potent here.

`C=CC(=O)N1C2CCC1CC(CNc1ncnc(N)c1-c1cnn(Cc3ccccc3)c1)C2` (stereo not shown) [A209, 1-(3-(((6-amino-5-(1-benzyl-1H-pyrazol-4-yl)pyrimidin-4-yl)amino)methyl)-8-azabicyclo[3.2.1]octan-8-yl)prop-2-en-1-one] and `C#CC(=O)N1CC[C@@H](CNc2ncnc(N)c2-c2cnn(Cc3ccccc3)c2)[C@H](O)C1` [A110, 1-((3S,4S)-4-(((6-amino-5-(1-benzyl-1H-pyrazol-4-yl)pyrimidin-4-yl)amino)methyl)-3-hydroxypiperidin-1-yl)prop-2-yn-1-one] cannot be ordered by IC50: under 1 µM for the first, under 0.1 µM for the second.

First: C=CC(=O)N[C@H]1CC[C@@H](Nc2ncnc(N)c2-c2ccc(C(=O)Nc3ccccc3)cc2)CC1 [A159, 4-(4-((cis-4-acrylamidocyclohexyl)amino)-6-aminopyrimidin-5-yl)-N-phenylbenzamide]
Second: C=CC(=O)[C@H]1CCC[C@H](Nc2ncnc(N)c2-c2ccc(Oc3ccccc3)cc2)C1 [A143, 1-((1S,3S)-3-(6-Amino-5-(4-phenoxyphenyl)-pyrimidin-4-ylamino)-cyclohexyl)-propenone]
The IC50 of the first is higher: over 1 µM for the first, under 0.1 µM for the second.

`C=CC(=O)Nc1cccc(Oc2ncnc(N)c2-c2ccc(OCc3ccccc3)cc2F)c1` [A349, N-{3-[6-Amino-5-(4-benzyloxy-2-fluoro-phenyl)-pyrimidin-4-yloxy]-phenyl}-acrylamide] and `C=CC(=O)Nc1cccc(Oc2ncnc(N)c2-c2c(F)cc(OCc3ccccc3)cc2F)c1` [A294, N-(3-((6-amino-5-(4-(benzyloxy)-2,6-difluorophenyl)pyrimidin-4-yl)oxy)phenyl)acrylamide] cannot be ordered by IC50: under 0.1 µM for the first, under 1 µM for the second.

Compared with `C=CC(=O)N1CCC(CNc2ncncc2-c2ccc(Oc3ccccc3)cc2)CC1` [A334, 1-(4-(((5-(4-phenoxyphenyl)pyrimidin-4-yl)amino)methyl)piperidin-1-yl)prop-2-en-1-one], `C=CC(=O)N1CCC(CNc2nc(N)ncc2-c2ccc(Oc3ccccc3)cc2)CC1` [A25, 1-(4-(((2-amino-5-(4-phenoxyphenyl)pyrimidin-4-yl)amino)methyl)piperidin-1-yl)prop-2-en-1-one] is higher in IC50: under 0.1 µM for the first, over 1 µM for the second. The first is the more potent here.

`C=CC(=O)Nc1cccc(Oc2ncnc(N)c2-c2ccc(OCc3cccc(F)c3)cc2)c1` [A260, N-(3-((6-amino-5-(4-((3-fluorobenzyl)oxy)phenyl)pyrimidin-4-yl)oxy)phenyl)acrylamide] and `C=CC(=O)Nc1cccc(Oc2ncnc(N)c2-c2ccc(OCc3ccc(F)cc3)cc2)c1` [A344, N-(3-{6-Amino-5-[4-(4-fluoro-benzyloxy)-phenyl]-pyrimidin-4-yloxy}-phenyl)-acrylamide] cannot be ordered by IC50: under 0.1 µM for the first, under 0.1 µM for the second.

`C=CC(=O)N1CCC(CN(C)c2nc(C)nc(N)c2-c2ccc(Oc3ccccc3)cc2)CC1` [A44, 1-(4-(((6-amino-2-methyl-5-(4-phenoxyphenyl)pyrimidin-4-yl)(methyl)amino)methyl)piperidin-1-yl)prop-2-en-1-one] and `C=CC(=O)N1CCC(CNc2nc(C)nc(N)c2-c2ccc(Oc3ccccc3)cc2)CC1` [A36, 1-(4-(((6-amino-2-methyl-5-(4-phenoxyphenyl)pyrimidin-4-yl)amino)methyl)piperidin-1-yl)prop-2-en-1-one] cannot be ordered by IC50: over 1 µM for the first, over 1 µM for the second.

`C=CC(=O)Nc1cccc(-c2c(Oc3ccc(Oc4ccccc4)cc3)ccnc2C(N)=O)c1` [A272, 3-(3-acrylamidophenyl)-4-(4-phenoxyphenoxy)picolinamide] and `C=CC(=O)Nc1cccc(-c2c(N)ncnc2Nc2ccc(Oc3ccccc3)cc2)c1` [A241, N-(3-(4-amino-6-((4-phenoxyphenyl)amino)pyrimidin-5-yl)phenyl)acrylamide] cannot be ordered by IC50: under 0.1 µM for the first, under 0.1 µM for the second.

`CCC(=O)NCc1ccc(-c2cnccc2Oc2ccc(Oc3ccccc3)cc2)cc1` [A324, N-(4-(4-(4-phenoxyphenoxy)pyridin-3-yl)benzyl)propionamide] and `CC#CC(=O)NCc1cccc(-c2cnccc2Oc2ccc(Oc3ccccc3)cc2)c1` [A304, N-(3-(4-(4-phenoxyphenoxy)pyridin-3-yl)benzyl)but-2-ynamide] cannot be ordered by IC50: over 1 µM for the first, over 1 µM for the second.

`C=CC(=O)N1CCC(CNc2ncnc(N)c2-c2ccc(Oc3ccc(C#N)cc3)cc2)CC1` [A86, 4-(4-(4-(((1-acryloylpiperidin-4-yl)methyl)amino)-6-aminopyrimidin-5-yl)phenoxy)benzonitrile] and `C=CC(=O)N1CC[C@@H](CNc2ncnc(N)c2-c2ccc(Oc3ccc(C#N)cc3)cc2)[C@H](O)C1` (racemic) [A199, 4-(4-(4-((((3S,4S)-1-acryloyl-3-hydroxypiperidin-4-yl)methyl)amino)-6-aminopyrimidin-5-yl)phenoxy)benzonitrile] cannot be ordered by IC50: under 1 µM for the first, under 1 µM for the second.

`CN(C)C/C=C/C(=O)N1CC2(CC(Oc3ncnc(N)c3Cl)C2)C1` [A102, (E)-1-(6-((6-amino-5-chloropyrimidin-4-yl)oxy)-2-azaspiro[3.3]heptan-2-yl)-4-(dimethylamino)but-2-en-1-one] and `C=CC(=O)N1CCC(CNc2ncnc(N)c2-c2ccc(OC)cc2)CC1` [A85, 1-(4-(((6-amino-5-(4-methoxyphenyl)pyrimidin-4-yl)amino)methyl)piperidin-1-yl)prop-2-en-1-one] cannot be ordered by IC50: over 1 µM for the first, over 1 µM for the second.

Going from `Nc1ncnc(NCC2CCN(c3cccc(Cl)n3)CC2)c1-c1ccc(Oc2ccccc2)cc1` [A337, N4-((1-(6-chloropyridin-2-yl)piperidin-4-yl)methyl)-5-(4-phenoxyphenyl)pyrimidine-4,6-diamine] to `C=CC(=O)N1CCC(CNc2ncnc(N)c2-c2ccc(Oc3ccc(C(F)(F)F)cc3)cc2)CC1` [A79, 1-(4-(((6-amino-5-(4-(4-(trifluoromethyl)phenoxy)phenyl)pyrimidin-4-yl)amino)methyl)piperidin-1-yl)prop-2-en-1-one], the IC50 falls from over 1 µM to under 1 µM. The second is the more potent here.

Going from `Nc1cccc(Oc2ccnc(N)c2-c2ccc(Oc3ccccc3)cc2)c1` [A313, 4-(3-aminophenoxy)-3-(4-phenoxyphenyl)pyridin-2-amine] to `CN(C)C/C=C/C(=O)Nc1cccc(Oc2ccnc(N)c2-c2ccc(OCc3ccccc3)cc2)c1` [A152, (E)-N-(3-((2-amino-3-(4-(benzyloxy)phenyl)pyridin-4-yl)oxy)phenyl)-4-(dimethylamino)but-2-enamide], the IC50 falls from over 1 µM to under 1 µM. The second is the more potent here.

`C=CC(=O)N1CC[C@@H](CNc2ncnc(N)c2-c2ccc(Oc3cccc(C(F)(F)F)c3)cc2)[C@H](O)C1` [A170, 1-((3S,4S)-4-(((6-amino-5-(4-(3-(trifluoromethyl)phenoxy)phenyl)pyrimidin-4-yl)amino)methyl)-3-hydroxypiperidin-1-yl)prop-2-en-1-one] and `C=CC(=O)Nc1cccc(Oc2ncnc(N)c2-c2ccc(NC(=O)c3ccccc3)cc2)c1` [A352, N-{4-[4-(3-Acryloylamino-phenoxy)-6-amino-pyrimidin-5-yl]-phenyl}-benzamide] cannot be ordered by IC50: under 0.1 µM for the first, under 0.1 µM for the second.

Work on `C=CC(=O)Nc1cccc(Oc2ncnc(N)c2-c2ccc(OCc3ccccc3)c(OC)c2)c1` [A256, N-(3-((6-amino-5-(4-(benzyloxy)-3-methoxyphenyl)pyrimidin-4-yl)oxy)phenyl)acrylamide] yielded an IC50 of under 0.1 µM.
